# Measured values taken from patent US7033593B2, “Immunogen comprising an HIV envelope protein, a ligand and H2 peptide” (priority 2000, dated 2006).
# “Also recorded” adds a separate entry of the source.
# What was measured:
# [1] = system: recombinant ADA gp41; test: SPR binding of HR-2 peptide to immobilized recombinant gp41; parameters: species or system HIV ADA
# Description: FIGS. 16A–16F show constitutive binding of HR-2 peptides to immobilized gp41 and CD4 induced binding to gp140. FIGS. 16A and 16B. Binding of DP178 (12.5 to 100 μg/ml) to immobilized ADA gp41 and CD4-gp140 (FIG. 16B) surfaces. FIGS. 16C and 16D. […] FIGS. 16E and 16F. Scatchard plots of RU vs RU/C for DP178 binding to gp41 (FIG. 16E) and to CD4-gp140 (FIG. 16F). Data are representative of 2 separate experiments.
# Binding of HR-2 peptide to recombinant gp41. To directly determine if HR-2 peptides can constitutively bind to purified gp41, recombinant ADA gp41 was immobilized to a sensor surface and the binding of HR-2 peptide, DP178, determined. […] To compare the binding of DP178 HR-2 peptide to recombinant gp41 versus HIV 89.6 gp140-sCD4 complex, the equilibrium binding contants (Keq) of HR-2 binding to both were measured. While the Keq of DP178 binding to recombinant gp41 was weak at 26.7 μM (FIG. 16E), the Keq of DP178 binding to sCD4-gp140 was 10 fold stronger at 1.7 μM (FIG. 16F).
# [2] = biological target: HIV-1 Env 89.6 gp120 (Human immunodeficiency virus type 1 group M subtype B, UniProt Q73372); test: biochemical; assay type: binding, HIV-1 89.6
# [3] = system: BaL gp120; test: BIACORE capture assay: peptide binding to BaL gp120; parameters: species or system HIV-1 BaL; conditions: CCR5-utilizing isolate
# Description: Rectangular bars represent the surface of the sensor chip on which sCD4 or mAbs A32 or T8 were covalently immobilized. Soluble gp120 proteins were first captured on each of these surfaces and then DP178 or sDP178 peptides were injected and their binding interactions were monitored. […] Based on their molecular size (1:27), 2000 RU of immobilized gp120 would bind 74 RU of DP178 peptide. […] Arrows point to start of injection of gp120 and DP178. […] In FIG. 27C, specific binding signal (solid) is shown after subtraction of non-specific signal (broken line). […] 50 μg/ml of DP178 peptide was flowed at 30 μl/min over each of these surfaces after 2000 RU of 89.6 gp120 was bound (FIG. 27D). In FIG. 27E, these same surfaces were also used to monitor binding of scrDP178 (50 μg/ml). […] (FIG. 27F) Binding of DP178 and DP107 peptides to A32-gp120 complex. […] Data are a representative experiment of 3 performed. […] 50 μg/ml of DP178 peptide was flowed at 30 μl/min over each of these surfaces after RU of BaL gp120 was bound (FIG. 27G). These same surfaces were also used to monitor binding of scrDP178 (50 μg/ml) (FIG. 27H).
# Surface Plasmon Resonance Biosensor Measurements.
# [4] = biological target: T8-gp120 (HIV 89.6 gp120) (Human immunodeficiency virus type 1 group M subtype B, UniProt Q73372); assay type: binding; conditions: SPR
# [5] = biological target: HIV-1 89.6 gp120 (Human immunodeficiency virus type 1 group M subtype B, UniProt Q73372); assay type: binding; conditions: absence of sCD4 or mAb A32, blot 29A lanes 3 and 4
# [6] = biological target: cleaved HIV 89.6 gp140 (Human immunodeficiency virus type 1 group M subtype B, UniProt Q73372); assay type: binding; conditions: no sCD4
# [7] = system: T8-gp140 (HIV 89.6 gp140); conditions: SPR
# Description: FIG. 14A. […] FIGS. 14B and 14C. […] After stabilization of gp140 capture, either the 19b (anti-gp120 V3) or 2F5 (anti-gp41) antibodies (300 μg/ml) were injected to assess the relative amounts of gp120 and gp41 on both surfaces. FIGS. 14D–14F.
# A blank chip served as an in-line reference surface for subtraction of non-specific binding and bulk responses.
# Surface Plasmon Resonance Biosensor Measurements. SPR biosensor measurements were determined on a BIACORE 3000 (BIACORE Inc., Uppsala, Sweden) instrument. […] A blank in-line reference surface (activated and de-activated for amine coupling) was used to subtract non-specific or bulk responses. Binding of proteins and peptides (biotinylated or free DP178, T649Q26L, DP178-scrambled) was monitored in real-time at 25° C. with a continuous flow of PBS (150 mM NaCl, 0.005% surfactant p20), pH 7.4 at 10–30 μl/min. Analyte (proteins and peptides) were removed and the sensor surfaces were regenerated following each cycle of binding by single or duplicate 5–10 μl pulses of regeneration solution (10 mM glycine-HCl, pH 2.5 or 10 mM NaOH).
# [8] = biological target: 89.6 gp120 (Human immunodeficiency virus type 1 group M subtype B, UniProt Q73372); assay type: binding, HIV-1 89.6
# Text: Biotinylated DP178 (FIG. 28A), scrDP178 (FIG. 28B) and scrDP107 (not shown) were attached to a SA-sensor chip through biotin-streptavidin interactions. 200–300 RU of each peptide was attached to individual flow cells of the SA chip. The scrDP107 surface was used as in-line reference subtraction of non-specific and bulk effect. All data shown here were derived after subtraction of signals from this reference surface. […] Data are a representative experiment of 3 performed.
# The scrDP107 surface was used as a reference surface for subtracting bulk and non-specific binding. […] Soluble gp120 proteins, mabs or gp120 proteins pre-incubated with mabs were then injected at 20 μl/min for 2–3 min over each of the peptide-SA surface. Binding data was acquired following in-line reference subtraction of binding from the scrDP107 (HR-1) surface.
# In these experiments (the “SA-chip assay”), biotinylated HR-2 peptides DP178 and scrDP178 were immobilized on adjacent flow cells of a streptavidin sensor chip (SA chip). […] The non-specific and bulk effect was measured over scrDP107 surface and this surface was used for automated in-line reference subtraction.
# [9] = biological target: HIV 89.6 gp140 (Human immunodeficiency virus type 1 group M subtype B, UniProt Q73372); assay type: binding; conditions: biotinylated peptide
# [10] = A32-induced gp120, two-component dissociation
# Sequence of HIV-1 Env 89.6 gp120 (Q73372 32-508): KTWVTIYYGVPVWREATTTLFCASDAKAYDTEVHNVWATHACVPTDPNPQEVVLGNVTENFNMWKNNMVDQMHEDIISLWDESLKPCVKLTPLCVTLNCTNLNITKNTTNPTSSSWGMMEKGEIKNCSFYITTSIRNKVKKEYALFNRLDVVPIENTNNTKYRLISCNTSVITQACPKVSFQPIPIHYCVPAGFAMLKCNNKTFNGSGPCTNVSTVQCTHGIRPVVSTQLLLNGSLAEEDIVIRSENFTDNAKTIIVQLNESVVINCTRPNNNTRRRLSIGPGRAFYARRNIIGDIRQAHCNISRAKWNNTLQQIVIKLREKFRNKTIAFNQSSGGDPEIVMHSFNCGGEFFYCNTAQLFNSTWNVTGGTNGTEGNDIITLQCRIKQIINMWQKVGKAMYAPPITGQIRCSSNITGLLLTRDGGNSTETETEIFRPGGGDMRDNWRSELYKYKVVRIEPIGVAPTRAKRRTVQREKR
# Sequence of 89.6 gp120 (Q73372 32-508): as above
# Sequence of cleaved HIV 89.6 gp140 (Q73372 32-681): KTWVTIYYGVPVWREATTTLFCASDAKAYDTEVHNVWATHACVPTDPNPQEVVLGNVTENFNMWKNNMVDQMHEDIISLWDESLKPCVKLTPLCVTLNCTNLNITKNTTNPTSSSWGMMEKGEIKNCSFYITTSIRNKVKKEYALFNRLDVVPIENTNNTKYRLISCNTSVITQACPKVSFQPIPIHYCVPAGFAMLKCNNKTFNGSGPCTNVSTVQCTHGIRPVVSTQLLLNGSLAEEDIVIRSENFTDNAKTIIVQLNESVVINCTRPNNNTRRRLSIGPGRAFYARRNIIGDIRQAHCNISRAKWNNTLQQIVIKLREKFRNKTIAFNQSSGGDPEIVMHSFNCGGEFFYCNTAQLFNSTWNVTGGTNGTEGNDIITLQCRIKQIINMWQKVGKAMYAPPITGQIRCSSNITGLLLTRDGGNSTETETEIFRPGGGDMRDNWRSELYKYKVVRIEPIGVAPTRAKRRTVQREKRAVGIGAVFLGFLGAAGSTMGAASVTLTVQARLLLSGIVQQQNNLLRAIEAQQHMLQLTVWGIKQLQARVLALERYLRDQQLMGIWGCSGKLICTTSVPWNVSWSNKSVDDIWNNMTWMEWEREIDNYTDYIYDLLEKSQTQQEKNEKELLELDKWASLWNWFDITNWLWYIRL
# Sequence of HIV 89.6 gp140 (Q73372 32-681): as above
# Sequence of T8-gp120 (HIV 89.6 gp120) (Q73372 32-508): as the sequence (Q73372 32-508) above
# Sequence of HIV-1 89.6 gp120 (Q73372 32-508): as above
substance,measurement,setting,value
enfuvirtide,binding to immobilized gp41 (in words),[1]; SPR,bound well
same,Kd,"[1]; Scatchard plot, read-out: Keq (equilibrium binding constant)",26.7 µM
same,Kd,[2],0.82 µM
same,faster component of the dissociation phase,[2]; biphasic binding,0.023 s⁻¹
same,slower component of the dissociation phase,"[2]; biphasic binding, predominant",0.001 s⁻¹
same,binding to gp120 bound to CD4 or A32 (in words),[2]; peptide 50 μg/ml,specific induction of DP178 binding; also recorded: Marked induction
same,binding to gp120 bound to mAb T8 (in words),[2]; peptide 50 μg/ml,no differences were observed
same,"binding to BaL gp120 complexed with A32, CD4 or T8 (in words)",[3],neither DP178 nor scrDP178 bound
same,binding to gp120 on T8 mab surface (in words),[4],neither HR-2 peptide bound
same,band density of precipitated gp120,[5],1.0 ODunits/mm^2
same,Rm (maximal binding at equilibrium),[6],35 RU
same,binding to cleaved gp140 (in words),[6],Low level binding
same,binding to T8-gp140 surface (in words),[7],near background binding
same,binding higher than expected due to mass effect only,[8]; +A32,3 fold
same,faster off-rate,[8]; [10],0.020 s⁻¹
same,slower off-rate,[8]; [10],0.0016 s⁻¹
same,binding signal of A32-gp120 over peptide surface,[8]; gp120 pre-incubated with A32 (+A32),~400 RU
same,immunoprecipitation of gp41 and gp140 (in words),[9],constitutively immunoprecipitated
